ChEMBL document CHEMBL6153110, “Peptide Double-Stapling and Arginine N-Glycosylation Triggered the Development of Therapeutic Antimicrobial Peptides Capable of Killing Drug-Resistant Bacteria in Mice” (J Med Chem, 2025)
In brackets after ≈: the same amount, converted by molar mass. Starred links: 1 amine or outer side, 2 acyl side, 3 side chain; linkers in the order of their positions; H or OH if unused. Positions of bridges follow the written chain, without caps; N, C: chain ends. Non-standard residues stand in square brackets, D forms with d. Residues, ends and D or L forms follow the SMILES beside them. ξ: configuration not given here. X2 = CC(=O)N[C@@H]1[C@@H](O)[C@H](O)[C@@H](CO)O[C@H]1NC(=N)NCCC[C@H](N[*:1])C(=O)[*:2]; ξαMeNle(6-ylidene) = CC(CCCC=[*:3])(N[*:1])C(=O)[*:2]; R8 = C=CCCCCCC[C@@](C)(N)C(=O)O; S5 = C=CCCC[C@](C)(N)C(=O)O; ξV = CC(C)C(N)C(=O)O

Tests used:
Klebsiella pneumoniae = experiment: Antimicrobial activity against Klebsiella pneumoniae ATCC 13883 assessed as growth inhibition measured after 8 hrs incubation by standard broth dilution assay; type: functional
Staphylococcus aureus = experiment: Antimicrobial activity against methicillin-resistant Staphylococcus aureus ATCC 43300 assessed as growth inhibition measured after 8 hrs incubation by standard broth dilution assay; type: functional
Streptococcus pneumoniae = experiment: Antimicrobial activity against Streptococcus pneumoniae ATCC 49619 assessed as growth inhibition measured after 8 hrs incubation by standard broth dilution assay; type: functional
Pseudomonas aeruginosa = experiment: Antimicrobial activity against Pseudomonas aeruginosa ATCC 27853 assessed as growth inhibition measured after 8 hrs incubation by standard broth dilution assay; type: functional
[1] = Hemolytic activity in BALB/c mouse red blood cells assessed as hemolysis incubated for 1 hrs; type: toxicity, cell-based, Erythrocyte; conditions: read-out: HD50

| SMILES | MIC (Klebsiella pneumoniae) [µg/mL] | MIC (Staphylococcus aureus) [µg/mL] | MIC (Streptococcus pneumoniae) [µg/mL] | MIC (Pseudomonas aeruginosa) [µg/mL] | HC50 at 1 h [1] [µg/mL] |
| --- | --- | --- | --- | --- | --- |
| CC(=O)N[C@@H]1[C@@H](O)[C@H](O)[C@@H](CO)O[C@H]1NC(=N)NCCC[C@H](NC(=O)[C@@H](NC(=O)[C@@H]1CCCN1C(=O)[C@H](CCCCN)NC(=O)[C@H](CCCCN)NC(=O)[C@H](CC(C)C)NC(=O)[C@]1(C)CCC/C=C\CCC[C@](C)(NC(=O)[C@H](CCCCN)NC(=O)[C@]2(C)CCC/C=C\CCC[C@](C)(NC(=O)[C@H](CCCNC(=N)N)NC(=O)[C@H](CCCCN)NC(=O)[C@H](CCCCN)NC(=O)[C@@H](NC(=O)[C@H](CCCNC(=N)N)NC(=O)[C@H](CCCCN)NC(=O)[C@H](CCCCN)NC(C)=O)C(C)C)C(=O)N[C@@H](Cc3ccccc3)C(=O)N[C@@H](CCCCN)C(=O)N[C@@H](CC(C)C)C(=O)N2)C(=O)N[C@@H](Cc2ccc(O)cc2)C(=O)N[C@@H](Cc2c[nH]c3ccccc23)C(=O)N[C@@H](CCCNC(=N)N)C(=O)N1)C(C)C)C(N)=O (Ac-KKRVKKR[S5]FKL[S5]K[S5]YWR[S5]LKKPV[X2]-NH2; staple (Z) 8-12, 14-18) | 2.5 (≈ 0.729 µM) | 2.5 (≈ 0.729 µM) | 2.4 (≈ 0.699 µM) | 2.6 (≈ 0.758 µM) | 82.2 |
| CC(=O)N[C@@H](CCCCN)C(=O)N[C@@H](CCCCN)C(=O)N[C@@H](CCCNC(=N)N)C(=O)N[C@H](C(=O)N[C@@H](Cc1c[nH]c2ccccc12)C(=O)N[C@@H](CCCCN)C(=O)N[C@@H](CCCNC(=N)N)C(=O)N[C@H](C(=O)N[C@@H](Cc1ccccc1)C(=O)N[C@@H](CCCCN)C(=O)N[C@@H](CC(C)C)C(=O)N[C@@H](CC(C)C)C(=O)N[C@@H](CCCCN)C(=O)N[C@@]1(C)CCC/C=C\CCC[C@@](C)(C(=O)N[C@@H](CC(C)C)C(=O)N[C@@H](CCCCN)C(=O)N[C@@H](CCCCN)C(=O)N2CCC[C@H]2C(=O)N[C@H](C(=O)N[C@@H](CCCNC(=N)N)C(N)=O)C(C)C)NC(=O)[C@H](CCCNC(=N)N)NC(=O)[C@H](Cc2c[nH]c3ccccc23)NC(=O)[C@H](Cc2ccc(O)cc2)NC1=O)C(C)C)C(C)C (Ac-KKRVWKRVFKLLK[S5]YWR[S5]LKKPVR-NH2; staple (Z) 14-18) | 4.9 (≈ 1.51 µM) | 4.9 (≈ 1.51 µM) | 2.4 (≈ 0.739 µM) | 2.9 (≈ 0.893 µM) | 19.2 |
| CC(=O)N[C@@H](CCCCN)C(=O)N[C@@H](CCCCN)C(=O)N[C@@H](CCCNC(=N)N)C(=O)N[C@H](C(=O)N[C@@H](Cc1c[nH]c2ccccc12)C(=O)N[C@@H](CCCCN)C(=O)N[C@@H](CCCNC(=N)N)C(=O)N[C@@]1(C)CCC/C=C\CCC[C@@](C)(C(=O)N[C@@H](CCCCN)C(=O)N[C@@]2(C)CCC/C=C\CCC[C@@](C)(C(=O)N[C@@H](CC(C)C)C(=O)N[C@@H](CCCCN)C(=O)N[C@@H](CCCCN)C(=O)N3CCC[C@H]3C(=O)N[C@H](C(=O)N[C@@H](CCCNC(=N)N)C(N)=O)C(C)C)NC(=O)[C@H](CCCNC(=N)N)NC(=O)[C@H](Cc3c[nH]c4ccccc34)NC(=O)[C@H](CCCCN)NC2=O)NC(=O)[C@H](CC(C)C)NC(=O)[C@H](CCCCN)NC(=O)[C@H](Cc2ccccc2)NC1=O)C(C)C (Ac-KKRVWKR[S5]FKL[S5]K[S5]KWR[S5]LKKPVR-NH2; staple (Z) 8-12, 14-18) | 38 (≈ 11.7 µM) | 2.5 (≈ 0.769 µM) | 4.7 (≈ 1.45 µM) | 2.6 (≈ 0.8 µM) | 88.4 |
| CC(=O)N[C@@H](CCCCN)C(=O)N[C@@H](CCCCN)C(=O)N[C@@H](CCCNC(=N)N)C(=O)N[C@H](C(=O)N[C@@H](Cc1c[nH]c2ccccc12)C(=O)N[C@@H](CCCCN)C(=O)N[C@@H](CCCNC(=N)N)C(=O)N[C@@]1(C)CCC/C=C\CCC[C@@](C)(C(=O)N[C@@H](CCCCN)C(=O)N[C@@]2(C)CCC/C=C\CCC[C@@](C)(C(=O)N[C@@H](CC(C)C)C(=O)N[C@@H](CCCCN)C(=O)N[C@@H](CCCCN)C(=O)N3CCC[C@H]3C(=O)N[C@H](C(=O)N[C@@H](CCCNC(=N)N)C(N)=O)C(C)C)NC(=O)[C@H](CCCNC(=N)N)NC(=O)[C@H](CCCCN)NC(=O)[C@H](Cc3ccc(O)cc3)NC2=O)NC(=O)[C@H](CC(C)C)NC(=O)[C@H](CCCCN)NC(=O)[C@H](Cc2ccccc2)NC1=O)C(C)C (Ac-KKRVWKR[S5]FKL[S5]K[S5]YKR[S5]LKKPVR-NH2; staple (Z) 8-12, 14-18) | 2.5 (≈ 0.774 µM) | 2.5 (≈ 0.774 µM) | 4.7 (≈ 1.46 µM) | 2.6 (≈ 0.805 µM) | 38.7 |
| CC(=O)N[C@@H](CCCCN)C(=O)N[C@@H](CCCCN)C(=O)N[C@@H](CCCNC(=N)N)C(=O)N[C@H](C(=O)N[C@@H](Cc1c[nH]c2ccccc12)C(=O)N[C@@H](CCCCN)C(=O)N[C@@H](CCCNC(=N)N)C(=O)N[C@@]1(C)CCC/C=C\CCC[C@@](C)(C(=O)N[C@@H](CCCCN)C(=O)N[C@@]2(C)CCC/C=C\CCC[C@@](C)(C(=O)N[C@@H](CC(C)C)C(=O)N[C@@H](CCCCN)C(=O)N[C@@H](CCCCN)C(=O)N3CCC[C@H]3C(=O)N[C@H](C(=O)N[C@@H](CCCNC(=N)N)C(N)=O)C(C)C)NC(=O)[C@H](CCCNC(=N)N)NC(=O)[C@H](Cc3c[nH]c4ccccc34)NC(=O)[C@H](Cc3ccc(O)cc3)NC2=O)NC(=O)[C@H](CC(C)C)NC(=O)[C@H](CCCCN)NC(=O)[C@H](Cc2ccccc2)NC1=O)C(C)C (Ac-KKRVWKR[S5]FKL[S5]K[S5]YWR[S5]LKKPVR-NH2; staple (Z) 8-12, 14-18) | 4.6 (≈ 1.4 µM) | 4.9 (≈ 1.49 µM) | 2.4 (≈ 0.73 µM) | 5 (≈ 1.52 µM) | 15.3 |
| CC(=O)N[C@@H](CCCCN)C(=O)N[C@@H](CCCCN)C(=O)N[C@@H](CCCNC(=N)N)C(=O)N[C@H](C(=O)N[C@]1(C)CCCCCC/C=C\CCC[C@@](C)(C(=O)N[C@@H](CCCCN)C(=O)N[C@@]2(C)CCC/C=C\CCCC(C)(C(=O)N[C@@H](CC(C)C)C(=O)N[C@@H](CCCCN)C(=O)N[C@@H](CCCCN)C(=O)N3CCC[C@H]3C(=O)N[C@H](C(=O)N[C@@H](CCCNC(=N)N)C(N)=O)C(C)C)NC(=O)[C@H](CCCNC(=N)N)NC(=O)[C@H](Cc3c[nH]c4ccccc34)NC(=O)[C@H](Cc3ccc(O)cc3)NC2=O)NC(=O)[C@H](CC(C)C)NC(=O)[C@H](CCCCN)NC(=O)[C@H](Cc2ccccc2)NC(=O)C(C(C)C)NC(=O)[C@H](CCCNC(=N)N)NC(=O)[C@H](CCCCN)NC1=O)C(C)C (stereo not given in full) (Ac-KKRV[R8]KR[ξV]FKL[S5]K[S5]YWR[ξαMeNle(6-ylidene)]LKKPVR-NH2; staple (Z) 5-12, 14-18) | 4.9 (≈ 1.51 µM) | 4.9 (≈ 1.51 µM) | 2.4 (≈ 0.74 µM) | 5 (≈ 1.54 µM) | 12.7 |
| CC(=O)N[C@@H](CCCCN)C(=O)N[C@@H](CCCCN)C(=O)N[C@@H](CCCNC(=N)N)C(=O)N[C@H](C(=O)N[C@@]1(C)CCC/C=C\CCC[C@@](C)(C(=O)N[C@@H](CCCCN)C(=O)N[C@@H](CC(C)C)C(=O)N[C@@H](CC(C)C)C(=O)N[C@@H](CCCCN)C(=O)N[C@@]2(C)CCC/C=C\CCC[C@@](C)(C(=O)N[C@@H](CC(C)C)C(=O)N[C@@H](CCCCN)C(=O)N[C@@H](CCCCN)C(=O)N3CCC[C@H]3C(=O)N[C@H](C(=O)N[C@@H](CCCNC(=N)N)C(N)=O)C(C)C)NC(=O)[C@H](CCCNC(=N)N)NC(=O)[C@H](Cc3c[nH]c4ccccc34)NC(=O)[C@H](Cc3ccc(O)cc3)NC2=O)NC(=O)[C@H](C(C)C)NC(=O)[C@H](CCCNC(=N)N)NC(=O)[C@H](CCCCN)NC1=O)C(C)C (Ac-KKRV[S5]KRV[S5]KLLK[S5]YWR[S5]LKKPVR-NH2; staple (Z) 5-9, 14-18) | 4.9 (≈ 1.55 µM) | 4.9 (≈ 1.55 µM) | 4.7 (≈ 1.48 µM) | 5 (≈ 1.58 µM) | 13.2 |
| CC(=O)N[C@@H](CCCCN)C(=O)N[C@@H](CCCCN)C(=O)N[C@@H](CCCNC(=N)N)C(=O)N[C@@]1(C)CCC/C=C\CCC[C@@](C)(C(=O)N[C@@H](Cc2ccccc2)C(=O)N[C@@H](CCCCN)C(=O)N[C@@H](CC(C)C)C(=O)N[C@@H](CC(C)C)C(=O)N[C@@H](CCCCN)C(=O)N[C@@]2(C)CCC/C=C\CCC[C@@](C)(C(=O)N[C@@H](CC(C)C)C(=O)N[C@@H](CCCCN)C(=O)N[C@@H](CCCCN)C(=O)N3CCC[C@H]3C(=O)N[C@H](C(=O)N[C@@H](CCCNC(=N)N)C(N)=O)C(C)C)NC(=O)[C@H](CCCNC(=N)N)NC(=O)[C@H](Cc3c[nH]c4ccccc34)NC(=O)[C@H](Cc3ccc(O)cc3)NC2=O)NC(=O)[C@H](CCCNC(=N)N)NC(=O)[C@H](CCCCN)NC(=O)[C@H](Cc2c[nH]c3ccccc23)NC1=O (Ac-KKR[S5]WKR[S5]FKLLK[S5]YWR[S5]LKKPVR-NH2; staple (Z) 4-8, 14-18) | 4.9 (≈ 1.48 µM) | 4.9 (≈ 1.48 µM) | 4.7 (≈ 1.42 µM) | 5 (≈ 1.52 µM) | 10.5 |
| CC(=O)N[C@@H](CC(C)C)C(=O)N[C@@H](CCCCN)C(=O)N[C@@H](CCCNC(=N)N)C(=O)N[C@@H](CCCCN)C(=O)N[C@@H](Cc1c[nH]c2ccccc12)C(=O)N[C@@H](CCCCN)C(=O)N[C@@H](CCCNC(=N)N)C(=O)N[C@H](C(=O)N[C@@H](Cc1ccccc1)C(=O)N[C@@H](CCCCN)C(=O)N[C@@H](CC(C)C)C(=O)N[C@@H](CC(C)C)C(=O)N[C@@H](CCCCN)C(=O)N[C@@]1(C)CCC/C=C\CCC[C@@](C)(C(=O)N[C@@H](CC(C)C)C(=O)N[C@@H](CCCCN)C(=O)N[C@@H](CCCCN)C(=O)N2CCC[C@H]2C(=O)N[C@H](C(=O)N[C@@H](CCCNC(=N)N)C(N)=O)C(C)C)NC(=O)[C@H](CCCNC(=N)N)NC(=O)[C@H](Cc2c[nH]c3ccccc23)NC(=O)[C@H](Cc2ccc(O)cc2)NC1=O)C(C)C (Ac-LKRKWKRVFKLLK[S5]YWR[S5]LKKPVR-NH2; staple (Z) 14-18) | 10.1 (≈ 3.1 µM) | 4.9 (≈ 1.5 µM) | 2.4 (≈ 0.736 µM) | 5 (≈ 1.53 µM) | 9.9 |
